# Data as given in publication PMC11400957 (The Journal of Biological Chemistry, 2024).
# Molecular target: IpaD^WT (full-length) (Shigella flexneri, UniProt P18013)
# Assay: CD thermal unfolding at […] nm
# Format: binding
# Conditions: 1 mM DOC, PBS pH 7.4, 0.5 mg/ml protein; absolute Tm with ligand, not a shift; nonspecific detergent effect not excluded
# Sequence of IpaD^WT (full-length) (P18013 whole entry): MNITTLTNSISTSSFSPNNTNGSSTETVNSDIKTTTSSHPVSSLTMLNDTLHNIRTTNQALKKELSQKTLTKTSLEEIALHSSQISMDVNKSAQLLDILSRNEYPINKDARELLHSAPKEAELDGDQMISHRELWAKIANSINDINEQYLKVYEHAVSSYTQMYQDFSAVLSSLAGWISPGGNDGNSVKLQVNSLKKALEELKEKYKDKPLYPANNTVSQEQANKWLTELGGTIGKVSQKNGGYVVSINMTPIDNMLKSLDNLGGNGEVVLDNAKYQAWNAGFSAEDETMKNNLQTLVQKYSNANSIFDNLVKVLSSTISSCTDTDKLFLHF
compound,measurement,value
C[C@H](CCC(=O)O)[C@H]1CC[C@H]2[C@@H]3CC[C@@H]4C[C@H](O)CC[C@]4(C)[C@H]3C[C@H](O)[C@]12C [deoxycholate],Tm ^b (°C ± SD) / +DOC,77 ± 1 °C
